Residues, ends and D or L forms follow the SMILES beside them.
Columns and labels:
[1] = molecular target: T1, Hepatocyte growth factor activator serine protease (Homo sapiens) (UniProt Q04756); assay: Inhibition of recombinant HGFA (unknown origin)-mediated proteolytic activation of pro-MSP after 1 hr by immunoblotting
T1 sequence (whole entry): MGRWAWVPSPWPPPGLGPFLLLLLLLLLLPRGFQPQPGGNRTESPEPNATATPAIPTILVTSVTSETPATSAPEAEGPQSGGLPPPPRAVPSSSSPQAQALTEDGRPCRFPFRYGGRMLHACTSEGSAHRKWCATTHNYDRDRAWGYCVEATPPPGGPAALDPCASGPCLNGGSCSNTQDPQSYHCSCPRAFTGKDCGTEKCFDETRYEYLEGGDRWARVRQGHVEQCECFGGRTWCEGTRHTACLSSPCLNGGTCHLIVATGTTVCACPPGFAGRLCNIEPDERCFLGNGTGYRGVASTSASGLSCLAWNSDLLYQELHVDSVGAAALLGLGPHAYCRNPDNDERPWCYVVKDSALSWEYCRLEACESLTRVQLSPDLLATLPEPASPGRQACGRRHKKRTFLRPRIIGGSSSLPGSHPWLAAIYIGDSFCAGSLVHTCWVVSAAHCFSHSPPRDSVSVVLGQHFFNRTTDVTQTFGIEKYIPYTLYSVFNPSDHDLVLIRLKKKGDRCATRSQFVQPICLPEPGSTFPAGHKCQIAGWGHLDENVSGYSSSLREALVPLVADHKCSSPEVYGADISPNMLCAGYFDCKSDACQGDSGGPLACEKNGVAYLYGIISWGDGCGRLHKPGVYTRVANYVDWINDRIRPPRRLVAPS

[2] = molecular target: T1, Hepatocyte growth factor activator serine protease (Homo sapiens); assay: (§1) Inhibition of HGFA in human MDA-MB-231 cells assessed as inhibition of c-MET phosphorylation after 15 mins by immunoblotting; format: cell-based
[3] = molecular target: T1, Hepatocyte growth factor activator serine protease (Homo sapiens); assay: Inhibition of recombinant HGFA (unknown origin)-mediated proteolytic activation of pro-HGF after 1 hr by immunoblotting
Homo sapiens [4] = species on record: Homo sapiens; assay: Ratio of Ki for matriptase (unknown origin) to Ki for recombinant hepsin (unknown origin)
Homo sapiens [5] = species on record: Homo sapiens; assay: Ratio of Ki for matriptase (unknown origin) to Ki for recombinant HGFA (unknown origin)
[6] = molecular target: T2, Hepatocyte growth factor activator serine protease (Homo sapiens, UniProt Q04756); assay: as §1; format: cell-based
T2 sequence (Q04756 whole entry): T1 sequence (whole entry)

[7] = molecular target: T3, Suppressor of tumorigenicity 14 protein (Homo sapiens, UniProt Q9Y5Y6); assay: Inhibition of matriptase (unknown origin) using Boc-QAR-AMC as substrate by fluorescence assay
T3 sequence (Q9Y5Y6 whole entry): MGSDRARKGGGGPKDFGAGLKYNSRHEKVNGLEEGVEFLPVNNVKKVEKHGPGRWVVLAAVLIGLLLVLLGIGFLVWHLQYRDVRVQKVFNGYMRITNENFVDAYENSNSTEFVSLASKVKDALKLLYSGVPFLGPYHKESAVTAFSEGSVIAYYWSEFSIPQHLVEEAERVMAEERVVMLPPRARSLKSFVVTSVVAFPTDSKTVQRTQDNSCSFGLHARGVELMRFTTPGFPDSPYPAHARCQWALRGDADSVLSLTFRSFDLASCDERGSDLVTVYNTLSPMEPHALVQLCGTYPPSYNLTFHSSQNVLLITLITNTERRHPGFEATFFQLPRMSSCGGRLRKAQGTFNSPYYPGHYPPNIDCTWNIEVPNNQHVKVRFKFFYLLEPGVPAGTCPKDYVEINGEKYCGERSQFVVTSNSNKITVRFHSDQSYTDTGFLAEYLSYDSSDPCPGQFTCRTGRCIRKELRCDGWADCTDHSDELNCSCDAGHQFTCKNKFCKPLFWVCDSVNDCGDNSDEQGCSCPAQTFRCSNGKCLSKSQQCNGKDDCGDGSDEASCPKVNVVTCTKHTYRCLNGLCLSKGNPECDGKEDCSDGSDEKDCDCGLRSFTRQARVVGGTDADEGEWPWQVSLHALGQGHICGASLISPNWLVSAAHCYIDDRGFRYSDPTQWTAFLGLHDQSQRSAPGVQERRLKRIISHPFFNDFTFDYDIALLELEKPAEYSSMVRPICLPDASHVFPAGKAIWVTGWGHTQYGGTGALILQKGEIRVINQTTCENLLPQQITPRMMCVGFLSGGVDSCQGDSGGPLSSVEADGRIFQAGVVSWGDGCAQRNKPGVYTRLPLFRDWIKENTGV

Serine protease hepsin = Serine protease hepsin (Homo sapiens, UniProt P05981); assay: Inhibition of recombinant hepsin (unknown origin) using Boc-QAR-AMC as substrate by fluorescence assay
Serine protease hepsin, sequence (P05981 1-162 limits assumed): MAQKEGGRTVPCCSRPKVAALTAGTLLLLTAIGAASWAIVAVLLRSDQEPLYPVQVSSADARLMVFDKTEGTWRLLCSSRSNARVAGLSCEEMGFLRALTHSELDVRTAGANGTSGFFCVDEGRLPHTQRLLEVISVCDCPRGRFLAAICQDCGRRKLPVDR
Serine protease hepsin, sequence (P05981 163-417 limits assumed): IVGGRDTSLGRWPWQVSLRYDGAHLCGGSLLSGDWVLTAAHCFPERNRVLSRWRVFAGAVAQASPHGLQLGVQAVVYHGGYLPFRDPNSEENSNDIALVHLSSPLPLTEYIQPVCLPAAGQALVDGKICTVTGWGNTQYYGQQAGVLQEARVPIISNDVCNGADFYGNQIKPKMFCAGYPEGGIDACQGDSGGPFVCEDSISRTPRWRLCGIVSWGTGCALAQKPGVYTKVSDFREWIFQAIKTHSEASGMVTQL

Row | Structure (SMILES) | inhibition [1] | inhibition [3] | EC50 [6] [nM] | Ki [7] [nM] | further results
1 | CC(=O)N[C@@H](CCCCN)C(=O)N[C@@H](CCCNC(=N)N)C(=O)N[C@@H](CC(C)C)C(=O)N[C@@H](CCCNC(=N)N)C(=O)c1nccs1 | Dose-dependent effect | Dose-dependent effect |  |  | inhibition [2]: Dose-dependent effect
2 | CC(=O)N[C@@H](CC(C)C)C(=O)N[C@@H](CC(C)C)C(=O)N[C@H](C=O)CCCNC(=N)N |  |  |  |  | Ratio Ki (Homo sapiens [4]): 3; Ratio Ki (Homo sapiens [5]): 3
3 | CC(C)C[C@H](NC(=O)[C@H](CCCNC(=N)N)NC(=O)[C@@H](N)CCCCN)C(=O)N[C@@H](CCCNC(=N)N)C(=O)O (H-KRLR-OH) |  |  | 180 |  | 
4 | N=C(N)c1ccc2cc(OC(=O)c3ccc(N=C(N)N)cc3)ccc2c1 [NAFAMOSTAT] |  |  | 490 |  | 
5 | CC(C)C[C@H](NC(=O)[C@H](CCC(N)=O)NC(=O)[C@@H](N)CCCCN)C(=O)N[C@@H](CCCNC(=N)N)C(=O)O (H-KQLR-OH) |  |  | 3100 |  | 
6 | CC(=O)N[C@@H](CCCCN)C(=O)N[C@@H](CCC(N)=O)C(=O)N[C@@H](CC(C)C)C(=O)N[C@@H](CCCNC(=N)N)C(=O)c1nccs1 | Dose-dependent effect | Dose-dependent effect |  | 0.92 | Ratio Ki (Homo sapiens [4]): 200; Ki (Serine protease hepsin): 0.22 nM
7 | CC(=O)N[C@@H](Cc1c[nH]c2ccccc12)C(=O)N[C@@H](CCCNC(=N)N)C(=O)N[C@@H](CC(C)C)C(=O)N[C@@H](CCCNC(=N)N)C(=O)c1nccs1 | Dose-dependent effect | Dose-dependent effect |  |  | 
8 | CC(=O)N[C@@H](CCCCN)C(=O)N[C@@H](Cc1cnc[nH]1)C(=O)N[C@@H](CC(C)C)C(=O)N[C@@H](CCCNC(=N)N)C(=O)c1nccs1 |  |  |  | 22 | 

Now from value to compound, other results behind:

Row | inhibition [1] | inhibition [3] | EC50 [6] [nM] | Ki [7] [nM] | Structure (SMILES) | further results
9 |  |  |  | 32 | CC(=O)N[C@@H](Cc1c[nH]c2ccccc12)C(=O)N[C@@H](CCC(N)=O)C(=O)N[C@@H](CC(C)C)C(=O)N[C@@H](CCCNC(=N)N)C(=O)c1nccs1 | 
10 | Dose-dependent effect |  |  |  | CC(=O)N[C@@H](CO)C(=O)N[C@@H](CCCNC(=N)N)C(=O)N[C@@H](CC(C)C)C(=O)N[C@@H](CCCNC(=N)N)C(=O)c1nccs1 | 

From ChEMBL document CHEMBL3352254, “Inhibitors of HGFA, Matriptase, and Hepsin Serine Proteases: A Nonkinase Strategy to Block Cell Signaling in Cancer” (ACS Med Chem Lett, 2014)
